We go through 2 compounds from patent publication US20080287541A1, “Kit for Treatment of Cancer” (Redoxia Israel Ltd., priority 2004, published 2008).

Where “and” joins values, the source holds several entries; their conditions need not be identical. Equal entries are not always repeated.

Experiment [1] deals with MX-1 mammary carcinoma cells. The experiment in a line: 3H-Thymidine incorporation (proliferation) assay. The following applies: positive control, 10^−5 M doxorubicin; negative control = 100%. The class given is cell-based, human.
Procedure: Test compounds: Tested substances were dissolved in the appropriate medium as follows: carmustine (Sigma) was dissolved in ethanol, disulfiram (DSF) (Sigma) and curcumin (Fluka) were dissolved in dimethyl sulfoxide (DMSO), and DL-buthionine-sulfoximine (BSO) (Fluka) was dissolved in growth medium.
Compounds were added in a 1:10 serial dilution to the wells to obtain range of 10^−3 M to 10^−8 M final concentrations.
Controls: Positive control—10^−5M Doxorubicin. Negative control—Media containing the compound's solvent.
Cell lines: MX-1 mammary carcinoma cells were grown in RPMI-1640 medium, supplemented with 10% FBS, 2 mM L-glutamine, 1% penicillin/streptomycin and 1% non-essential amino acids.
MX-1 culturing and sub-culturing: MX-1 cells were grown in 75 cm^2 culture flasks. The culture medium was changed every other day and the day before the experiment. […]
Thymidine incorporation (proliferation) assay and cells harvesting: 24 hours after administering the compounds, to each well in the culture plates, ^3H-thymidine (NET-027 Thymidine [methyl-^3H] from NEN, 6.7 Ci/mmol) was added to final concentration of 0.4 μCi/well. […] Radioactivity was determined after adding 180 μl scintillation liquid (Microscint 20™, Packard).
Data calculation: The data represent the mean amount of thymidine counted per well (CPM). Average and standard deviation (SD) were calculated for each plate (12 wells). […]
For a further experiment, the system named is neuroblastoma cells. The following applies: Nicole et al. (1998); cited from earlier work.
A further experiment deals with various cell lines. The following applies: BSO by itself; Dai et al. (1999); cited from earlier work.

In the case of `COc1cccc2c1C(=O)c1c(O)c3c(c(O)c1C2=O)C[C@@](O)(C(=O)CO)C[C@@H]3O[C@H]1C[C@H](N)[C@H](O)[C@H](C)O1` [doxorubicin, Doxorubicin], the Cell proliferation rate in experiment [1] was 4-11% and 4%.
As to `CCCCS(=N)(=O)CCC(N)C(=O)O` (racemic) [BSO, buthionine sulfoximine], the “decrease of GSH content” value in the experiment with neuroblastoma cells is given as 98%. For the same compound, the “decrease in [GSH] in the cell” value with various cell lines is on record as 70%.
